# Numbers after ± are expanded uncertainties.
# Tests used:
# [1] = Molar enthalpy of transition or fusion; conditions: Crystal; DSC
# [2] = for mass density: 298.15 K, 101.33 kPa, Liquid, Pycnometric method
mass density [2],Structure (SMILES),Molar enthalpy of transition or fusion [1],"Normal melting temperature ([2]; Crystal, DTA)"
786.4 ± 40 kg/m3,CCO [ethanol],–,–
785.9 ± 40 kg/m3,CO [methanol],–,–
782.7 ± 40 kg/m3,CC(C)O [propan-2-ol],–,–

# Second part, the molecule before the results:
Structure (SMILES),mass density [2],Molar enthalpy of transition or fusion [1],"Normal melting temperature ([2]; Crystal, DTA)"
"C[C@]12CCC(=O)C=C1CC[C@@H]1[C@@H]2CC[C@]2(C)C(=O)CC[C@@H]12 [androst-4-ene-3,17-dione]",–,25.7 ± 1.6 kJ/mol,171.39 ± 0.7 °C
CCCCO [butan-1-ol],805.5 ± 40 kg/m3,–,–
